In test [1] the test system is monocyte derived DC. The test can be described thus: Flow cytometric analysis of DC surface molecules. It is filed as cell-based, human. To be noted: immature DC of allergics, 48 h incubation. On the procedure:
(§1) Monocyte derived DC were generated as previously described (Weigt et al. Immunobiol. 207, 223-233 (2003). Briefly, blood was centrifuged to remove platelets, diluted and layered over Ficoll-Paque (Amersham Pharmacia, Uppsala, Sweden). After density gradient centrifugation, PBMC were collected, and monocytes were enriched using the MACS system and anti-CD14 beads (Miltenyi Biotec, Bergisch Gladbach, Germany). The CD14 positive fraction (monocytes) was cultured in the serum-free medium X-VIVO 15 supplemented with 100 U/ml penicillin and […] streptomycin (all BioWhittaker, Verviers, Belgium). The CD14 negative fraction containing the lymphocytes was cryopreserved in 90% FCS (GIBCO, Eggenstein-Leopoldhafen, Germany) and 10% DMSO (SIGMA, Taufkirchen, Germany). On day 1 and day 5 after isolation, 800 U/m of recombinant GM-CSF and 500 U/ml of recombinant IL-4 (Strathmann Biotec, Hamburg, Germany) were added to the monocyte culture to induce DC.
(§2) On day 5 of the culture, DC were pulsed with affinity purified house dust mite allergen adjusted to a concentration of 100 ng/ml of DerP1 or with PBS as control. […] The respective optimal concentrations were experimentally determined using the highest expression of stimulatory cell surface molecules as read-out system. The substances were incubated on the cells for 48 hours.
For immunophenotyping, an aliquot of DC was harvested after 7 days of culture and washed in PBS supplemented with 0.5% FCS and 10 mM NaN3 (SIGMA, Taufkirchen, Germany). After 30-minute-incubation at 4° C. with one of the following combination of labeled murine mAbs (isotype control FITC/isotype control PE, anti-CD83 FITC, anti-CD86 FITC/anti-CD40 PE, anti-CD 80 FITC/anti-HLA-DR PE, anti-CD1a FITC/anti-CD14 PE (all BD Biosciences, Heidelberg, Germany)) cells were washed and analysed on a EPICS XL-MCL (Beckmann Coulter, Krefeld, Germany) flow cytometer. Data were processed with the Expo 32 cytometer software (Beckmann Coulter). The expression of the cell surface molecules was shown in 1 parameter Histograms (FIG. 2) or evaluated using the median of fluorescence intensity (MFI) after subtraction of the values of the isotype control (Tab. 1).
For orientation: A flow cytometer gives signals particle by particle.

Test [2] has as its system monocyte derived DC. The experiment in a line: Cytokines in DC culture supernatant (ELISA). It is filed as cell-based, human. To be noted: day 7 of culture; for IL-10 production in DC culture supernatant / IL-12p70 production in DC culture supernatant: compared to untreated DC. Here is the method:
as §1, §2
(§3) Cytokine concentrations were determined in DC culture supernatant collected on day 7 (TNF-α, IL-10, IL-12) and in the supernatant of the coculture of DC and autologous lymphocytes collected on day 10 (IFN-γ, IL-4). Duo-Set ELISA kits for the detection of IL-12p70, IL-10, TNF, IFN-γ, IL-4 and IL-5 were purchased (R&D Systems, Wiesbaden, Germany) and performed according to the manufacturers instructions.

Test [3] deals with autologous lymphocytes. The test can be described thus: Cytokines in coculture of pretreated DC with autologous lymphocytes (ELISA). It is filed as cell-based, human. To be noted: allergic donors, DC:lymphocytes 1:3. Here is the method: as §2, §3
A portion of DC was used for coculture experiments with autologous lymphocytes from day 7 to day 13. To remove free stimulants, DC were harvested and washed twice. The cells were titrated in fresh medium in fresh round-bottom microtiterplates. 1×10^5 vital cryopreserved autologous lymphocytes were added at ratios of DC to lymphocytes from 1:3 to 1:2187 in a final volume of 200 μl in serum-free XVIVO-15. No further stimulants were given.
(In an ELISA, binding on a coated surface is turned into a signal by an enzyme label.)

For test [4], the system named is autologous lymphocytes. To be noted: DC treated in vitro; Weigt et al. 2003; cited from earlier work.

Turning to “IFN-γ: interferon gamma, IFNγ receptor agonist (Strathmann Biotec)”, the “Surface expression of CD80, CD86, CD40, HLA-DR, CD83 on DC” value in test [1] is reported as “upregulated only HLA-DR”. Further, in test [2], the “TNF production in DC culture supernatant” value is “comparable moderate release”, the “IL-10 production in DC culture supernatant” value is “did not influence” and the “IL-12p70 production in DC culture supernatant” value is on record as “did not influence”. For the same substance, in test [3], the “IFN-g in coculture supernatant” value is given as “heightened lymphopcyte IFN-g production” and the “IL-4 in coculture supernatant” value is on record as “little effect on IL-4”.

For “macrophage activating lipopeptide-2 [MALP-2, reference compound]”, the “Surface expression of CD80, CD86, CD40, HLA-DR, CD83 on DC” value in test [1] was “significantly upregulated CD 40, CD 80, CD 83 and CD86”. Besides, in test [2], the “TNF production in DC culture supernatant” value is on record as “comparable moderate release”, the “IL-10 production in DC culture supernatant” value is reported as “induced IL-10” and the “IL-12p70 production in DC culture supernatant” value is “no effect on IL-12”. Moreover, in test [3], the “IFN-g in coculture supernatant” value was “lowered IFN-g less compared to allergen pulsed DC” and the “IL-4 in coculture supernatant” value is on record as “reduced IL-4 to control levels”. In addition, in test [4], the “Polarization of lymphocytes into T-helper (Th-1) cells” value is reported as “no significant polarization” and the “Proliferation of autologous lymphocytes” value is “marked proliferation”.

Values taken from patent publication US8415152B2, “Therapeutical composition containing dentritic cells and use thereof” (Helmholtz-Zentrum für Infektionsforschung GmbH, priority 2003, dated 2013).
